Source: PubChem BioAssay (NCI)
Values joined by “and” are separate entries in the source; they are usually repeats but may differ in a detail not shown here. Equal values may be shown once.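 Interpolation was linear, between the two tested concentrations surrounding the appropriate level; five concentrations were tested over 48 hours in 96-well plates. At the GI50, growth is halved. TGI denotes the concentration required for complete inhibition of growth.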

Legend:
Assay in all cases: NCI anticancer screen, dose series, 48 h
BT-549 breast = test system: BT-549 breast
HS 578T breast = test system: HS 578T breast
PC-3 prostate = test system: PC-3 prostate
NCI/ADR-RES ovarian = test system: NCI/ADR-RES ovarian
MDA-N = test system: MDA-N

| SMILES | GI50 (BT-549 breast) | TGI (BT-549 breast) [µM] | GI50 (HS 578T breast) | TGI (HS 578T breast) | GI50 (PC-3 prostate) [µM] | TGI (PC-3 prostate) | GI50 (NCI/ADR-RES ovarian) | TGI (NCI/ADR-RES ovarian) [µM] | TGI (MDA-N) [µM] | GI50 (MDA-N) [µM] |
| --- | --- | --- | --- | --- | --- | --- | --- | --- | --- | --- |
| C(=N\Nc1nnn(Cc2ccccc2)n1)/c1ccccc1 | 11.5 µM | > 100 | 13.7 µM | > 89.6 µM | 6.82 | > 100 µM | 0.545 µM | 8.78 | – | – |
| CN(C)C(=O)O[C@H]1CN[C@H](C#Cc2cc3ncnc(Nc4ccc(OCc5cccc(F)c5)c(Cl)c4)c3s2)C1 | 4 µM | 10.2 | 10.4 µM | > 25 µM | 5.44 | > 25 µM | 9.82 µM | > 25 | – | – |
| CCOC(=O)/C(C#N)=C\C=C(/Cl)c1ccc(Cl)cc1 | 25.8 µM | 68 | 22.7 µM | 60.7 µM | 15 | 33.5 µM | 22 µM | 44.6 | – | – |
| C=C1C(=O)O[C@H]2[C@H]1CC/C(COC(=O)NCC(C)c1ccc(CC(C)C)cc1)=C\CC[C@@]1(C)O[C@@H]21 (some centres undefined) | 0.775 µM | 2.25 | 1.53 µM | 15 µM | 0.691 | 1.76 µM | 3.54 µM | 10.1 | – | – |
| O=S(=O)(NCCCNc1nccc(-c2c(-c3ccc(F)cc3)nc3sccn23)n1)c1ccc2ccccc2c1 | 4.34 µM | > 100 | 9.13 µM | > 100 µM | 4.36 | > 100 µM | 3.89 µM | > 100 | – | – |
| O=C1OCC2=C1C(c1ccccc1)c1cc3c(cc1N2CCO)OCO3 (centres undefined) | 4.93 µM | > 50 | 2.72 µM | 33.7 µM | 4.66 | > 50 µM | 2.08 µM | 17.8 | – | – |
| CC(C)CCC1(CCN)C(=O)NC(=O)NC1=O | – | > 100 | – | > 100 µM | – | > 100 µM | – | > 100 | > 100 | – |
| CCCCn1c(-c2ccc(C(=O)O/N=C(\N)c3ccc4c(c3)OCO4)cc2)nc(-c2ccccc2)c1-c1ccccc1 | 2.61 µM | 7.84 | 1.88 µM | 5.09 µM | 2.59 | > 100 µM | 1.52 µM | 4.48 | – | – |
| c1c[nH]c(CN2CCOCC2)n1 | – | > 100 | – | > 100 µM | – | > 100 µM | – | > 100 | > 100 | – |
| CN1/C(=C\C=C\C2=[N+](C)c3ccccc3C2(C)C)C(C)(C)c2ccccc21 | 0.0903 µM | 1.64 | 0.216 µM | 4.45 µM | 0.0455 | 5.97 µM | 1.29 µM | 4.97 | – | – |
| Cc1ccc(-c2nc3nc(-c4ccc(F)cc4)nc(N4CCCNCC4)c3o2)cc1 | 1.66 µM | 3.37 | 1.78 µM | 3.69 µM | 1.56 | 3.18 µM | 1.91 µM | 3.63 | – | – |
| Cc1cc(I)cc(CN(C)CCCN2CCCC2)c1O | 13.9 µM | 31.7 | 13.6 µM | 33.8 µM | 25 | 73.7 µM | 36.7 µM | > 100 | – | – |
| COc1ccc2c(c1)/C(=C/c1cc(OC)c(OC)c(OC)c1)C(=O)N2 | 1.37 µM | > 100 | 0.362 µM | 12.8 µM | 0.364 | > 100 µM | 0.142 µM | 1.74 | – | – |
| c1ccc2[nH]c(-c3ccc(Nc4nc(N5CCCCC5)nc(N5CCOCC5)n4)cc3)nc2c1 | 2.07 µM | 5.2 | 2.56 µM | 8.61 µM | 3.05 | 9.13 µM | 4.69 µM | 55.2 | – | – |
| N#Cc1ccc(NC(=O)C(CC(=O)OCc2ccccc2)NC(=O)OCc2ccccc2)cc1 (centres undefined) | – | – | > 100 µM | > 100 µM | > 100 | > 100 µM | > 100 µM | > 100 | > 100 | > 100 |
| CCNC(=O)c1noc(-c2cc(C(C)C)c(O)cc2O)c1-c1ccc(CN2CCOCC2)cc1 | 8.36 µM | 30.4 | 2.47 µM | 56.9 µM | 0.0648 | 66.6 µM | 0.313 µM | 44.1 | – | – |
| O=C(N/N=C/c1ccccc1O)c1ccccc1 | 3.6 µM | > 100 | 27.1 µM | > 100 µM | 6.53 | > 100 µM | 1.94 µM | 27.6 | – | – |
| COC(=O)C1(C)Cc2cc(OC(C)=O)c(OC(C)=O)cc2N1 (centres undefined) | 4.93 µM | 22 | – | > 24.1 µM | 9.64 | > 72.6 µM | 16 µM | > 75.5 | – | – |
| CNC(=O)c1nn(C)c2c1C(C)(C)Cc1cnc(Nc3ccc(N4CCN(C)CC4)cc3)nc1-2 | 1.61 µM | > 8.77 | 0.369 µM | > 2.37 µM | 0.368 | > 10 µM | 3 µM | > 10 | – | – |

| SMILES | GI50 (BT-549 breast) | TGI (BT-549 breast) [µM] | GI50 (HS 578T breast) | TGI (HS 578T breast) | GI50 (PC-3 prostate) [µM] | TGI (PC-3 prostate) | GI50 (NCI/ADR-RES ovarian) | TGI (NCI/ADR-RES ovarian) [µM] | TGI (MDA-N) [µM] | GI50 (MDA-N) [µM] |
| --- | --- | --- | --- | --- | --- | --- | --- | --- | --- | --- |
| COc1ccc(C(=O)c2ccc([As]=O)cc2)cc1 (centres undefined) | 0.166 µM | 0.315 | 0.149 µM | 0.586 µM | 0.056 | 0.185 µM | – | – | – | – |
| O=C1CCCCN1CCCCC#Cc1cccc(C#Cc2cccnc2)c1 | 18.6 µM | 74.7 | 28.5 µM | > 100 µM | 11.6 | > 100 µM | 17.5 µM | 85.4 | – | – |
| Oc1ccccc1-c1nn(CNc2ccccc2Cl)c(=S)o1 | > 100 µM | > 100 | > 100 µM | > 100 µM | 99 | > 100 µM | 18.2 µM | 72.7 | – | – |
| O=C(O)[C@H](c1ccccc1)[C@@H](C(=O)O)c1ccccc1 | – | > 100 | – | > 100 µM | – | > 100 µM | – | > 100 | > 100 | – |
| CCCCCCCCCCCCCCCC[N+]1(C)CCOCC1 | 2.2 µM | 4.7 | 2.23 µM | 8.44 µM | 0.655 | 2.43 µM | 18.1 µM | 44.9 | – | – |
| O=C(Nc1ccc(Cl)c(Cl)c1)NS(=O)(=O)c1cnccc1Oc1ccc(F)cc1 | 6.84 µM | 40.4 | 3.25 µM | > 100 µM | 3.25 | > 100 µM | 4.38 µM | > 100 | – | – |
| N#CNC(N)=Nc1ccc(Cl)cc1 | – | > 100 | – | > 100 µM | – | > 100 µM | – | > 100 | > 100 | – |
| O=S(=O)(CCCl)c1ccc(Cl)cc1 | 3.36 µM | 12.6 | 3 µM | 19.2 µM | 5.82 | 22.9 µM | 3.86 µM | 40.6 | – | – |
| CC(C)(C)OC(=O)NCCCCCCCn1c2c(c3ccccc3c1=O)C(=O)c1ccccc1-2 | 22.4 µM | 46.6 | 17.4 µM | 49.5 µM | 25.4 | > 100 µM | 26.1 µM | > 100 | – | – |
| Cc1ccc(NC(=O)c2cc(S(=O)(=O)N3C(=O)NC(=O)NS3(=O)=O)c(S)cc2Cl)cc1 | 24.2 µM | 63.9 | 29.4 µM | 95.8 µM | 32.3 | > 100 µM | > 100 µM | > 100 | – | – |
| CCC1=CC2CN(C1)Cc1c([nH]c3ccccc13)[C@@](C(=O)OC)(c1cc3c(cc1OC)N(C)[C@H]1[C@@](O)(C(=O)OC)[C@H](OC(C)=O)[C@]4(CC)C=CCN5CC[C@]31[C@@H]54)C2 (some centres undefined) | < 0.005 µM and 0.043 µM | – | 0.00827 µM and 0.0277 µM | 19.8 µM and 45.7 µM | < 0.005 | 32.6 µM and > 100 µM | 1.05 µM and 1.85 µM | – | – | – |
| O=C(O)[C@@H](Cc1ccc2ccccc2c1)NC(=O)n1c2ccccc2c2ccccc21 | 2.85 µM | 14.2 | 2.24 µM | 59.6 µM | 1.87 | 15.8 µM | 2.83 µM | 9.65 | – | – |
| O=C(N[C@@H](C[Se][Se]C[C@H](NC(=O)c1ccc(Br)cc1F)C(=O)O)C(=O)O)c1ccc(Br)cc1F | > 100 µM | > 100 | > 100 µM | > 100 µM | > 100 | > 100 µM | > 100 µM | > 100 | – | – |
| C[C@H]1CCCC(O)C(O)[C@@H]2C[C@H](O[Si](C)(C)C(C)(C)C)C[C@H]2[C@H](O[Si](C)(C)C(C)(C)C)C(O)C(O)C(=O)O1 (some centres undefined) | 20.1 µM | > 100 | – | – | 46.1 | > 100 µM | 27.2 µM | > 100 | > 100 | > 100 |
| C=C1C(=O)O[C@H]2[C@H]1CC/C(C=Nc1c(N)cc(C(F)(F)F)cc1Br)=C\CC[C@@]1(C)O[C@@H]21 | 1.41 µM | 2.91 | 2.08 µM | 9.5 µM | 1.5 | 3.85 µM | 2.31 µM | – | – | – |
| COc1cc(NCCCCCCCNC(C)C)c2nccc(C)c2c1 | 17.7 µM | 33.5 | 17.4 µM | 39.7 µM | 10.5 | 23.9 µM | 14.3 µM | 28.4 | – | – |
| O=c1oc2ccc(I)cc2c(=O)n1-c1ccc(Cl)cc1F | 1.03 µM | 3.8 | 0.688 µM | 8.66 µM | 2 | 7.11 µM | 1.87 µM | 21.7 | – | – |
| COc1cnc2c(c1)C(=O)c1c-2n(CCCN2CCN(C)CC2)c(=O)c2cc([N+](=O)[O-])ccc12 | – | – | 14.5 µM | 31 µM | – | – | 0.323 µM | 5.82 | – | – |
